Measurements published in patent publication EP2892896B1 (Bristol-Myers Squibb Company, priority 2012, dated 2014).

The compounds below were run against T1, human melanin concentrating hormone receptor (MCHR1) (Homo sapiens, UniProt Q99705, A5T/E4Q) (assay: Radioligand binding assay for assessment of MCHR1 activity). Settings: membranes from HEK-293 cells expressing a mutated (E4Q, A5T) hMCHR1 receptor; competition with 0.06 - 0.1 nM [Phe13, [125I]Tyr19]-MCH; 90 min.
T1 construct: expressed in transfected cells; host or cells: HEK-293 (stably transfected), membranes
T1 sequence (Q99705 whole entry E4Q/A5T): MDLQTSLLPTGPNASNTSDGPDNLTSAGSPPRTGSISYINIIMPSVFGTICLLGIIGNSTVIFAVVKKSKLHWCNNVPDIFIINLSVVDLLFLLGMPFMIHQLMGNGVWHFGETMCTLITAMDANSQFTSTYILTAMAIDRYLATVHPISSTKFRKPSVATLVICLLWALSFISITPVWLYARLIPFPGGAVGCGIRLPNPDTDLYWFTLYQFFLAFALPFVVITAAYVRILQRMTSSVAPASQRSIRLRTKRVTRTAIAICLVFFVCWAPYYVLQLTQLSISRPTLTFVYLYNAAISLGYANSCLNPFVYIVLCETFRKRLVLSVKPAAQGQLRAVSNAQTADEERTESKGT
Protocol: Radioligand Binding Assay for Assessment of MCHR1 Activity
An in vitro binding assay was used to determine the compound Ki value or ability to antagonize binding of a peptide agonist to the human melanin concentrating hormone receptor (MCHR1). […] Binding experiments were carried out with 0.5-1.0 µg of membrane protein incubated in a total of 0.2 mL in 25 mM HEPES (pH 7.4) with 10 mM MgCl2, 2 mM EGTA, and 0.1% BSA (Binding Buffer) for 90 min. For competition binding assays, reactions were carried out in the presence of with 0.06 - 0.1 nM [Phe^13, [^125I]Tyr^19]-MCH and increasing concentrations of unlabeled test molecules. […] Filters were dried, 0.05 mL MicroScint 20 was added to each well and radioactivity was subsequently quantified by scintillation counting on a TOPCOUNT® microplate scintillation counter (Packard). Inhibitory constants were determined by nonlinear least squares analysis using a four parameter logistic equation.

Ki [nM]	Compound
57	CCS(=O)(=O)C[C@@H](O)COc1ccc(N2CCC(Oc3ccc(C4CC4)cc3)C2=O)cc1C (some centres unmarked) [Example 93]
16	CCS(=O)(=O)C[C@@H](O)COc1ccc(N2CCC(Oc3ccc(C4CC4)cc3)C2=O)cc1OC (some centres unmarked) [Example 52]
79	Cc1cc(N2CCC(Oc3ccc(C4CC4)cc3)C2=O)ccc1OC[C@H](O)CS(C)(=O)=O (some centres unmarked) [Example 97]
64	COc1cc(N2CCC(Oc3ccc(C4CC4)cc3)C2=O)ccc1OCCS(=O)(=O)CC(C)(C)O (centres unmarked) [Example 74]
71	CCS(=O)(=O)C[C@@H](O)COc1ccc(N2CCC(Oc3ccc(OC4CC4)cc3)C2=O)cc1OC (some centres unmarked) [Example 56]
1430	Cc1cc(N2CCC(Oc3ccc(C(F)(F)F)cc3)C2=O)ccc1OC[C@H](O)CS(C)(=O)=O (some centres unmarked) [Example 98]
11	COc1cc(N2CCC(Oc3ccc(-c4ccccc4)cc3)C2=O)ccc1OC[C@@H](O)CS(C)(=O)=O (some centres unmarked) [Example 62]
32	COc1cc(N2CCC(Oc3ccc(C4CC4)cc3)C2=O)ccc1OC[C@@H](O)CS(C)(=O)=O (some centres unmarked) [Example 64]
11	Cc1cc(N2CC[C@@H](Oc3ccc(OC(F)(F)F)cc3)C2=O)ccc1OCC(C)(C)O [Example 79]
6000	Cc1cc(N2CC[C@H](Oc3ccc(OC(F)(F)F)cc3)C2=O)ccc1OCC(C)(C)O [Example 78]
18	COc1cc(N2CCC(Oc3ccc(-c4ccc(F)cc4)cc3)C2=O)ccc1OC[C@H](O)CS(C)(=O)=O (some centres unmarked) [Example 59]
8	COc1cc(N2CCC(Oc3ccc(OC(F)(F)F)cc3)C2=O)ccc1OCCS(C)(=O)=O (centres unmarked) [Example 65, 1-(3-Methoxy-4-(2-(methylsulfonyl)ethoxy)phenyl)-3-(4-(trifluoromethoxy)phenoxy)pyrrolidin-2-one]
7	COc1cc(N2CCC(Oc3ccc(C4CC4)cc3)C2=O)ccc1OCCS(C)(=O)=O (centres unmarked) [Example 70]
22	CCS(=O)(=O)C[C@@H](O)COc1ccc(N2CCC(Oc3ccc(-c4ccc(F)cc4)cc3)C2=O)cc1C (some centres unmarked) [Example 92]
78	CCS(=O)(=O)C[C@@H](O)COc1ccc(N2CCC(Oc3ccc(OC(F)(F)F)cc3)C2=O)cc1OC (some centres unmarked) [Example 51]
11	COc1cc(N2CC[C@@H](Oc3ccc(OC(F)(F)F)cc3)C2=O)ccc1OCC(C)(C)O [Example 15]
87	COc1cc(N2CC[C@H](Oc3ccc(C4CC4)cc3)C2=O)ccc1OCCS(C)(=O)=O [Example 73]

Further lines, the compound ahead of its results:

Compound	Ki [nM]
COc1cc(N2CCC(Oc3ccc(C4CC4)cc3)C2=O)ccc1OCC(C)(C)O (centres unmarked) [Example 22, 3-(4-Cyclopropylphenoxy)-1-(4-(2-hydroxy-2-methylpropoxy)-3-methoxyphenyl)pyrrolidin-2-one]	23
Cc1cc(N2CCC(Oc3ccc(-c4ccccc4)cc3)C2=O)ccc1OC[C@H](O)CS(C)(=O)=O (some centres unmarked) [Example 95]	15
COc1cc(N2CCC(Oc3ccc(Br)c(F)c3)C2=O)ccc1OCC(C)(C)O (centres unmarked) [Example 42]	821
Cc1cc(N2CCC(Oc3ccc(C4CC4)cc3)C2=O)ccc1OCC(C)(C)O (centres unmarked) [Example 82]	11
Cc1cc(N2CCC(Oc3ccc(Br)nc3)C2=O)ccc1OCC(C)(C)O (centres unmarked) [Example 87]	7000
COc1cc(N2CCC(Oc3cccc(C(F)(F)F)c3)C2=O)ccc1OCC(C)(C)O (centres unmarked) [Example 7]	6000
Cc1cc(N2CCC(Oc3ccc(-c4ccccc4)nc3)C2=O)ccc1OCC(C)(C)O (centres unmarked) [Example 88]	45
Cc1cc(N2CC[C@H](Oc3ccc(C4CC4)cc3)C2=O)ccc1OCC(C)(C)O [Example 83]	168
COc1cc(N2CCC(Oc3ccc(-c4cccc(F)c4)cc3)C2=O)ccc1OCCS(C)(=O)=O (centres unmarked) [Example 68]	5
Cc1cc(N2CCC(Oc3ccc(C(F)(F)F)cc3)C2=O)ccc1OCC(C)(C)O (centres unmarked) [Example 76]	26
COc1cc(N2CCC(Oc3ccc(-c4ccccc4)nc3)C2=O)ccc1OCC(C)(C)O (centres unmarked) [Example 35]	81
Cc1cc(N2CCC(Oc3ccc(-c4ccc(F)cc4)cc3)C2=O)ccc1OCCS(C)(=O)=O (centres unmarked) [Example 109]	6
Cc1cc(N2CCC(Oc3ccc(N4CCOCC4)cc3)C2=O)ccc1OCC(C)(C)O (centres unmarked) [Example 33]	903
COc1cc(N2CCC(Oc3ccc(-n4ccnc4)cc3)C2=O)ccc1OCC(C)(C)O (centres unmarked) [Example 39]	480
COc1cc(N2CCC(Oc3ccc(OC(F)(F)F)cc3Cl)C2=O)ccc1OCC(C)(C)O (centres unmarked) [Example 17]	402
COc1cc(N2CCC(Oc3ccccc3C(F)(F)F)C2=O)ccc1OCC(C)(C)O (centres unmarked) [Example 6]	7000
COc1cc(N2CCC(Oc3ccc(-c4ccccc4OC)cc3)C2=O)ccc1OCC(C)(C)O (centres unmarked) [Example 27]	238
COc1cc(N2CCC(Oc3ccc(-c4ccccc4)c(Cl)c3)C2=O)ccc1OCC(C)(C)O (centres unmarked) [Example 29]	87
COc1cc(N2CC[C@@H](Oc3ccc(-c4ccccc4)cc3)C2=O)ccc1OCC(C)(C)O [Example 21]	2
COc1cc(N2CCC(Oc3ccc(-c4ccccc4Cl)cc3)C2=O)ccc1OCC(C)(C)O (centres unmarked) [Example 25]	68
COc1cc(N2CCC(Oc3ccc(-c4ccccc4)cn3)C2=O)ccc1OCC(C)(C)O (centres unmarked) [Example 34, 1-(4-(2-Hydroxy-2-methylpropoxy)-3-methoxyphenyl)-3-(5-phenylpyridin-2-yloxy)pyrrolidin-2-one]	13
Cc1cc(N2CC[C@H](Oc3ccc(-c4ccc(F)cc4)cc3)C2=O)ccc1OCCS(C)(=O)=O [Example 111]	1740
COc1cc(N2CCC(Oc3ccc(OC(F)(F)F)c(F)c3)C2=O)ccc1OCC(C)(C)O (centres unmarked) [Example 18]	959
COc1cc(N2CCC(Oc3ccc(OC4CC4)cc3)C2=O)ccc1OCC(C)(C)O (centres unmarked) [Example 23]	44
COc1cc(N2CC=C(Oc3ccc(C4CC4)cc3)C2=O)ccc1OC[C@H](O)C1CC1 [Example 121]	2
Cc1cc(N2CCC(Oc3ccc(-c4ccccc4)cc3)C2=O)ccc1OCCS(C)(=O)=O (centres unmarked) [Example 104]	1
COc1cc(N2CCC(Oc3ccc(-c4ccccc4C(F)(F)F)cc3)C2=O)ccc1OCC(C)(C)O (centres unmarked) [Example 28]	956
